Experimental data as given in US20240208964A1, “PYRIDOPYRIMIDINES AND METHODS OF THEIR USE” (PYRIDOPYRIMIDINES AND METHODS OF THEIR USE, priority 2020, published 2024).

Columns and labels:
[1] = system: PIKFYVE TDP-43 yeast strain; test: Propidium iodide viability assay in PIKFYVE TDP-43 yeast strain; type: cell-based; settings: for PIKfyve TDP-43 (active/inactive): PIKFYVE TDP-43 yeast model
Source text: (§1) Generation of TDP-43 yeast model expressing human PIKfyve. Human PIKFYVE (“entry clone”) was cloned into pAG416GPDccdB (“destination vector”) according to standard Gateway cloning protocols (Invitrogen, Life Technologies). The resulting pAG416GPD-PIKFYVE plasmids were amplified in E. coli and plasmid identity confirmed by restriction digest and Sanger sequencing. Lithium acetate/polyethylene glycol-based transformation was used to introduce the above PIKFYVE plasmid into a BY4741 yeast strain auxotrophic for the ura3 gene and deleted for two transcription factors that regulate the xenobiotic efflux pumps, a major efflux pump, and FAB1, the yeast ortholog of PIKFYVE (MATa, snq2::KILeu2; pdr3::Klura3;pdrl::NATMX; fab1::G418^R, his3;leu2;ura3;met15;LYS2+) (FIG. 2). Transformed yeast were plated on solid agar plates with complete synthetic media lacking uracil (CSM-ura) and containing 2% glucose. Individual colonies harboring the control or PIKFYVE TDP-43 plasmids were recovered. A plasmid containing wild-type TDP-43 under the transcriptional control of the GAL1 promoter and containing the hygromycin-resistance gene as a selectable marker was transformed into the fab1::G418^R pAG416GPD-PIKFYVE yeast strain (FIG. 1). Transformed yeast were plated on CSM-ura containing 2% glucose and 200 μg/mL […] after overnight recovery in media lacking antibiotic. Multiple independent isolates were further evaluated for cytotoxicity and TDP-43 expression levels.
(§2) Viability Assay. A control yeast strain with the wild-type yeast FAB1 gene and TDP-43 (“FAB1 TDP-43”, carries empty pAG416 plasmid), and the “PIKFYVE TDP-43” yeast strain, were assessed for toxicity using a propidium iodide viability assay. Both yeast strains were transferred from solid CSM-ura/2% glucose agar plates into 3 mL of liquid CSM-ura/2% glucose media for 6-8 hours at 30° C. with aeration. Yeast cultures were then diluted to an optical density at 600 nm wavelength (OD600) of 0.005 in 3 mL of CSM-ura/2% raffinose and grown overnight at 30° C. with aeration to an OD600 of 0.3-0.8. Log-phase overnight cultures were diluted to OD600 of 0.005 in CSM-ura containing either 2% raffinose or galactose and 150 μL dispensed into each well of a flat bottom 96-well plates. Compounds formulated in 100% dimethyl sulfoxide (DMSO) were serially diluted in DMSO and 1.5 μL diluted compound transferred to the 96-well plates using a multichannel pipet. Wells containing DMSO alone were also evaluated as controls for compound effects. Tested concentrations ranged from 15 μM to 0.11 μM. Cultures were immediately mixed to ensure compound distribution and covered plates incubated at 30° C. for 24 hours in a stationary, humified incubator.
(§3) Upon the completion of incubation, cultures were assayed for viability using propidium iodide (PI) to stain for dead/dying cells. A working solution of PI was made where, for each plate, 1 μL of 10 mM PI was added to 10 mL of CSM-ura (raffinose or galactose). The final PI solution (50 μL/well) was dispensed into each well of a new round bottom 96-well plate. The overnight 96-well assay plate was then mixed with a multichannel pipet and 50 μL transferred to the PI-containing plate. This plate was then incubated for 30 minutes at 30° C. in the dark. A benchtop flow cytometer (Miltenyi MACSquant) was then used to assess red fluorescence (B2 channel), forward scatter, and side scatter (with following settings: gentle mix, high flow rate, fast measurement, 10,000 events). Intensity histograms were then gated for “PI-positive” or “PI-negative” using the raffinose and galactose cultures treated with DMSO as controls. The DMSO controls for raffinose or galactose-containing cultures were used to determine the window of increased cell death and this difference set to 100. All compounds were similarly gated and then compared to this maximal window to establish the percent reduction in PI-positive cells.

FAB1 TDP-43 yeast strain = test: Propidium iodide viability assay in FAB1 TDP-43 control yeast strain; type: cell-based; settings: for FAB1 TDP-43 (active/inactive): FAB1 TDP-43 yeast model
Source text: as §1, §2, §3

[2] = molecular target: full-length human PIKFYVE (GST-PIKFYVE) (Homo sapiens (Human), UniProt Q9Y2I7, L932S/Q1183K/Q995L/S1033A/S696N/T998S); test: PIKfyve biochemical assay (ADP-Glo Kinase assay, Carna Biosciences); settings: ADP-Glo, full-length human PIKFYVE; read-out: hPIKfyve IC50
Source text: PIKfyve Biochemical Assay. The biochemical PIKFyve inhibition assays were run by Carna Biosciences according to proprietary methodology based on the Promega ADP-Glo™ Kinase assay. A full-length human PIKFYVE [1-2098(end) amino acids and S696N, L932S, Q995L, T998S, S1033A and Q1183K of the protein having the sequence set forth in NCBI Reference Sequence No. NP_055855.2] was expressed as N-terminal GST-fusion protein (265 kDa) using baculovirus expression system. GST-PIKFYVE was purified by using glutathione sepharose chromatography and used in an ADP-Glo™ Kinase assay (Promega). Reactions were set up by adding the test compound solution, substrate solution, ATP solution and kinase solution, each at 4× final concentrations. Reactions were prepared with assay buffer (50 mM MOPS, 1 mM DTT, pH7.2), mixed, and incubated in black 384 well polystyrene plates for 1 hour at room temperature. ADP-Glo™ reagent was then added for 40 minutes, followed by kinase detection reagent for an additional 40 minutes. The kinase activity was evaluated by detecting relative light units on a luminescence plate reader. Samples were run in duplicate from 10 μM to 3 nM. […] IC50 values were calculated from concentration vs % inhibition curves by fitting to a four-parameter logistic curve.
The biochemical PIKFyve inhibition assays were run by Carna Biosciences according to proprietary methodology based on the Promega ADP-Glo™ Kinase assay. A full-length human PIKFYVE [1-2098(end) amino acids and S696N, L932S, Q995L, T998S, S1033A and Q1183K of accession number NP_055855.2] was expressed as N-terminal GST-fusion protein (265 kDa) using baculovirus expression system. GST-PIKFYVE was purified by using glutathione sepharose chromatography and used in an ADP-Glo™ Kinase assay (Promega).
Reactions were set up by adding the test compound solution, substrate solution, ATP solution and kinase solution, each at 4× final concentrations. Reactions were prepared with assay buffer (50 mM MOPS, 1 mM DTT, pH7.2), mixed, and incubated in black 384 well polystyrene plates for 1 hour at room temperature. ADP-Glo™ reagent was then added for 40 minutes, followed by kinase detection reagent for an additional 40 minutes. The kinase activity was evaluated by detecting relative light units on a luminescence plate reader. Samples were run in duplicate from 10 uM to 3 nM. […] IC50 values were calculated from concentration vs % inhibition curves by fitting to a four-parameter logistic curve.

[3] = molecular target: PIKfyve (PIKFYVE-NanoLuc fusion in HEK293 cells) (Homo sapiens (Human), UniProt Q9Y2I7); test: NanoBRET TE Intracellular Kinase Assay, K-8 (Promega) cell-based assay; settings: 2 hours, read-out: hPIKfyve BRET IC50
Experimental: NanoBRET™ TE Intracellular Kinase Assay, K-8 (Promega) Cell-Based Assay. Intracellular inhibition of PIKfyve was assayed using Promega's NanoBRET™ TE Intracellular Kinase Assay, K-8 according to manufacturer's instructions. A dilution series of test compounds was added for 2 hours to HEK293 cells transfected for a minimum of 20 hours with PIKFYVE-NanoLuc® Fusion Vector (Promega) containing a full-length PIKfyve according to manufacturer's specifications in a 96-well plate. Kinase activity was detected by addition of a NanoBRET™ tracer reagent, which was a proprietary PIKfyve inhibitor appended to a fluorescent probe (BRET, bioluminescence resonance energy transfer). Test compounds were tested at concentrations of 10, 3, 1, 0.3, 0.1, 0.03, 0.01, 0.003 μM. BRET signals were measured by a GloMax®Discover Multimode Microplate Reader (Promega) using 0.3 sec/well integration time, 450BP donor filter and 600LP acceptor filters. Active test compounds that bound PIKfyve and displaced the tracer reduced BRET signal. IC50 values were then calculated by fitting the data to the normalized BRET ratio.

Sequence of full-length human PIKFYVE (GST-PIKFYVE) (Q9Y2I7 whole entry S696N/L932S/Q995L/T998S/S1033A/Q1183K, the tested form may be a part): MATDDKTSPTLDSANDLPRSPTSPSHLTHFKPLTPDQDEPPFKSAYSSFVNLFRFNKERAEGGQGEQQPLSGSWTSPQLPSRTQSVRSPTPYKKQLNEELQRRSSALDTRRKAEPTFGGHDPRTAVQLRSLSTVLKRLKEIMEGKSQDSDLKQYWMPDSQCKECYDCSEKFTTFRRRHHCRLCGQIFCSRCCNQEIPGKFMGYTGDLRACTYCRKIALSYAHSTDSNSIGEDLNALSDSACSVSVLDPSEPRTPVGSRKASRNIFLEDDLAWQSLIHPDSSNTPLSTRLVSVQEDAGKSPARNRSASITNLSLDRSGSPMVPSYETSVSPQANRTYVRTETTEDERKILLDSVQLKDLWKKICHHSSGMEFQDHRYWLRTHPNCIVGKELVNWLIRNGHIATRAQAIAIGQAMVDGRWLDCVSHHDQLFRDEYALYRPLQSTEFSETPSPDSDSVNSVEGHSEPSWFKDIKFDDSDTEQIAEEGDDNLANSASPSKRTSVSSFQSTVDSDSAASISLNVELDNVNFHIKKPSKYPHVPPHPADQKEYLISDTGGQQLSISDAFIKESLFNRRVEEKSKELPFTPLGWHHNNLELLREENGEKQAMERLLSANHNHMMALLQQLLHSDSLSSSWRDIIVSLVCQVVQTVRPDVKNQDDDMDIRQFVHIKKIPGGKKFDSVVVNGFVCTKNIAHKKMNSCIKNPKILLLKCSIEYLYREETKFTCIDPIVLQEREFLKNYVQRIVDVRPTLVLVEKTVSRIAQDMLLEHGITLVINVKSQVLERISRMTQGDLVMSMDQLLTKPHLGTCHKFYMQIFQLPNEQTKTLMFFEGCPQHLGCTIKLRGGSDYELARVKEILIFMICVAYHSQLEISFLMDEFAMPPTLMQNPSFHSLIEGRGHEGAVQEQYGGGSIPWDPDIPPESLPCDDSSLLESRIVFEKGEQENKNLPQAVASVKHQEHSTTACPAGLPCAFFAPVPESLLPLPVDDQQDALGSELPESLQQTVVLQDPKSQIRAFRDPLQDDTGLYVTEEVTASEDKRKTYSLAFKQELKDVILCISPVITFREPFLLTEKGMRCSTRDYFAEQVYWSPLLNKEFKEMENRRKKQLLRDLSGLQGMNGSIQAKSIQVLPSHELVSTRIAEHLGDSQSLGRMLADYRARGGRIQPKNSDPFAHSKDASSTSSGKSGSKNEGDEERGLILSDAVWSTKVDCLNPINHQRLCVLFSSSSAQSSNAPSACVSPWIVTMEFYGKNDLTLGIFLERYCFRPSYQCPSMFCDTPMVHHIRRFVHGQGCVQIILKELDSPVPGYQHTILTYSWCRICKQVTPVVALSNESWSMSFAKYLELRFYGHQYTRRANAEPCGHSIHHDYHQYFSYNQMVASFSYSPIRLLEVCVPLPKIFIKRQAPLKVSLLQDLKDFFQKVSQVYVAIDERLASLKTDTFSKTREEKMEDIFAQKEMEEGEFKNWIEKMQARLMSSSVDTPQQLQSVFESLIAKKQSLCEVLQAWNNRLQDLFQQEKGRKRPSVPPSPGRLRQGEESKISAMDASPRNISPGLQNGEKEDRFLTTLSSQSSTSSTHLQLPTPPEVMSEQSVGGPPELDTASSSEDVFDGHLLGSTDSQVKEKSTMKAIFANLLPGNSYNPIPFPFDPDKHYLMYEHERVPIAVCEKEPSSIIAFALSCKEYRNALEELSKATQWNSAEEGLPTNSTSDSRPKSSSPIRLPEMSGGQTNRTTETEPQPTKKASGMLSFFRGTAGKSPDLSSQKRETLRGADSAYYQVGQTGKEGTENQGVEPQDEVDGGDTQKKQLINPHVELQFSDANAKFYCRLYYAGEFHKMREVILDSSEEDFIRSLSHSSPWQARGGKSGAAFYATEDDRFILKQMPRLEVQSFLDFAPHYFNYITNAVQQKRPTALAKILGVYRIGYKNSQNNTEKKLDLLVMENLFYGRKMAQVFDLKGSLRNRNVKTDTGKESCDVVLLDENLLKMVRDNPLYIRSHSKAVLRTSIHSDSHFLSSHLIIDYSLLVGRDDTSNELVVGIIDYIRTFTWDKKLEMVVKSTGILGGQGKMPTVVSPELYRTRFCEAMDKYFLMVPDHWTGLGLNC
Sequence of PIKfyve (PIKFYVE-NanoLuc fusion in HEK293 cells) (Q9Y2I7 whole entry, the tested form may be a part): as the sequence (Q9Y2I7 whole entry S696N/L932S/Q995L/T998S/S1033A/Q1183K, the tested form may be a part) above, with N696S, S932L, L995Q, S998T, A1033S, K1183Q counted along it

IC50 [2] [nM]	IC50 [3] [nM]	Compound	PIKfyve TDP-43 (active/inactive) [1]	FAB1 TDP-43 (active/inactive) (FAB1 TDP-43 yeast strain)	other results
–	–	Cc1cccc(/C=N/Nc2cc(N3CC4CC3CO4)n3nc(-c4ccncc4)cc3n2)c1 (stereo not drawn)	Active	Inactive	–
–	–	Cn1c(-c2ccncc2)nc2c(N3CCOCC3)ncnc21	Inactive	Inactive	–
–	–	CN(C)c1cc(N2CCOCC2)n2nc(-c3ccncc3)cc2n1	Inactive	Inactive	–
–	–	N#Cc1cc(N2CCOCC2)n2nc(-c3ccncc3)cc2n1	Inactive	Inactive	–
–	–	Cc1cccc(/C=N/Nc2cc(N3CCOCC3)n3nc(-c4ccncc4)cc3n2)c1 [APY0201, reference compound]	–	–	propidium iodide-positive dead cells in PIKFYVE TDP-43 ([1]; 0.23 μM, FIG. 6): reduced the population of propidium iodide-positive dead cells; viable cells in FAB1 TDP-43 (FAB1 TDP-43 yeast strain; range of compound concentrations (only 0.23 μM is shown), FIG. 5): no increase in viable cells
10 to 100	100 to 1000	Cc1cccc(-c2cc(O)n(-c3nc(N4CCOCC4)c4ncccc4n3)n2)c1 [compound 26, 1-(4-morpholinopyrido[3,2-d]pyrimidin-2-yl)-3-m-tolyl-1H-pyrazol-5-ol]	–	–	–
< 10	100 to 1000	c1ccc(-c2nccc(-c3nc(N4CCOCC4)c4ncccc4n3)n2)cc1 [compound 39, 4-(2-(2-phenylpyrimidin-4-yl)pyrido[3,2-d]pyrimidin-4-yl)morpholine]	–	–	–
100 to 1000	100 to 1000	c1ccc(Nc2nc(N3CCOCC3)c3ncc(Cc4cccnc4)cc3n2)cc1 [compound 79]	–	–	–
10 to 100	10 to 100	Cc1cccc(/C=N/Nc2nc(N3CCOCC3)c3ncc(Cc4cccnc4)cc3n2)c1 [compound 80]	–	–	–
10 to 100	100 to 1000	Cc1cccc(-c2cc(O)n(-c3nc(N4CCOCC4)c4ncc(Cc5cccnc5)cc4n3)n2)c1 [compound 81]	–	–	–
–	–	Cc1cccc(/C=N/Nc2cc(N3CCOCC3)n3nc(-c4ccncc4)cc3n2)c1 [drawing 292]	Active	Inactive	–
–	–	Cc1cccc(/C=N/Nc2nc(N3CCOCC3)c3nc(-c4ccncc4)n(C)c3n2)c1 [drawing 294]	Active	Inactive	–
